Consider eleven compounds from patent publication US20020091265A1, “4-phenyl-pyridine derivatives” (priority 1999, published 2002).

The target of data set [1] is T1, human NK1 receptor (Homo sapiens, UniProt P25103). The data set is described as follows: [3H]substance P binding at human NK1 receptors in CHO cells. Particulars: [3H]substance P 0.6 nM, 60 min room temperature, read-out: affinity (pKi) for the human NK1 receptor (converted). The protocol:
All assays were performed in triplicate in at least2 separate experiments.

For data set [2], the target named is T2, NK2 receptors (Homo sapiens, UniProt P21452).
T2 sequence (P21452 1-398): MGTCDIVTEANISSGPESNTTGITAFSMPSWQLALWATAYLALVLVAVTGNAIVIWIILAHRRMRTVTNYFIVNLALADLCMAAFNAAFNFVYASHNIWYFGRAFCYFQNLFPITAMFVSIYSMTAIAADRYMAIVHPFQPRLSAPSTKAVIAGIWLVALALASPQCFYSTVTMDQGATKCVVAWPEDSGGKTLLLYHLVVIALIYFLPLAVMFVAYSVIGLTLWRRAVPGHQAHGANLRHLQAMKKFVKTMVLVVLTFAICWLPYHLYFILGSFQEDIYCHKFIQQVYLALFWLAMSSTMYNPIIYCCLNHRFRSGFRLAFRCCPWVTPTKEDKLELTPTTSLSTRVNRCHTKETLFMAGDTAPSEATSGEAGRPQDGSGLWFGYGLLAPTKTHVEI
Briefly: Selectivity for NK1 compared to NK2 receptors. The data set is classed as binding.

The target of data set [3] is T3, NK3 receptors (Homo sapiens, UniProt P29371).
T3 sequence (P29371 1-465): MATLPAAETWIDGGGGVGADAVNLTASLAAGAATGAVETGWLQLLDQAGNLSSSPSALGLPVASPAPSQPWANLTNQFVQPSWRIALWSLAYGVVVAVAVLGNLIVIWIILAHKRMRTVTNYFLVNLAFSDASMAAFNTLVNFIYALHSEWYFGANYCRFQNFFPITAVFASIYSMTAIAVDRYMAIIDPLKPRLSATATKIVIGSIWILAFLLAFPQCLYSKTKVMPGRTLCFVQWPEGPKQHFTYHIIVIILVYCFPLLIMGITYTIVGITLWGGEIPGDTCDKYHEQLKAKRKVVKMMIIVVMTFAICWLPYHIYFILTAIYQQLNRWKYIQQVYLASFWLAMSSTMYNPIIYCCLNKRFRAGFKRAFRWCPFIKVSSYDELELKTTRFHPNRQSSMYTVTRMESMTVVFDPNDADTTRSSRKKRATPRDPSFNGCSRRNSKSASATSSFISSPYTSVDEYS
The data set is described as follows: Selectivity for NK1 compared to NK3 receptors. It counts as binding.

Data set [4] deals with over 50 other binding sites. The data set is described as follows: Selectivity for NK1 compared to over 50 other binding sites.
Data set [5] has as its system foot-tapping behaviour induced in gerbils with an NK1 receptor agonist. Briefly: Foot-tapping behaviour induced by i.c.v. NK1 receptor agonist. It counts as in vivo, gerbil. Particulars: for dose calculated to inhibit 50% of the foot-tapping behaviour: oral administration. As for the experimental part:
In vivo the compound of formula Ia antagonises foot-tapping behaviour induced in gerbils with intracerebroventricular (i.c.v.) injections of an NK1 receptor agonist. The dose for this compound calculated to inhibit 50% of the foot-tapping behaviour following oral administration was 0.2 mg/kg.
In vivo 2-(3,5-bis-trifluoromethyl-phenyl)-N-methyl-N-[6-(4-methyl-piperazin-1-yl)-4-o-tolyl-pyridin-3-yl]-isobutyramide antagonises foot-tapping behaviour induced in Gerbils with intracerebroventricular (i.c.v.) injections of an NK1 receptor agonist. The dose of this compound calculated to inhibit 50% of the foot-tapping behaviour following oral administration was 0.5 mg/kg.
In vivo the compound of formula Ic antagonises foot-tapping behaviour induced in Gerbils with intracerebroventricular (i.c.v.) injections of an NK1 receptor agonist. The dose of this compound calculated to inhibit 50% of the foot-tapping behaviour following oral administration was 1.5 mg/kg.

Data set [6] relates to emesis induced in ferrets by emetogens. Briefly: Antiemetic test in ferrets. It counts as in vivo, ferret. Particulars: 0.3 mg/kg p.o., 2 hours before the emetogen. As for the experimental part:
The compound of formula 1a, 2-(3,5-Bis-trifluoromethyl-phenyl)-N-methyl-N-(6-morpholin-4-yl-4-o-tolyl-pyridin-3-yl)-isobutyramide, was also tested as an antiemetic agent in ferrets.
2-(3,5-bis-trifluoromethyl-phenyl)-N-methyl-N-[6-(4-methyl-piperazin-1-yl)-4-o-tolyl-pyridin-3-yl]-isobutyramide was also tested as an antiemetic agent in Ferrets.

Data set [7] is described as follows: Pharmacokinetic parameters in rats. Conditions: rat, in vivo; for bioavailability: po; for half-life: read-out: terminal half-life (converted); for Vd: read-out: volume of distribution.
The nature of data set [8]: in vivo. Conditions: dog; for bioavailability: po.
From the text: The pharmacokinetic parameters have been evaluated in both rats and dogs.
In data set [9] the target is T1, human NK1 receptor. The data set is described as follows: Substance P induced Ca2+ influx in CHO cells (FLIPR). It counts as cell-based. Further details: expressed in transfected cells; host or cells: CHO cells. Conditions: for effect on substance P induced Ca2+ influxes: CHO cells expressing recombinant human NK1 receptor, FLIPR; for type of antagonism at human recombinant NK1 receptors: from Ca2+ influx data. The source says: The activity in vitro of the compound of formula 1a was examined by studying its effect on substance P induced Ca^2+ influxes in CHO cells expressing the recombinant human NK1 receptor. In these cells, substance P causes a concentration dependent influx of Ca^2+ which can be measured using FLIPR technology.
The activity of 2-(3,5-bis-trifluoromethyl-phenyl)-N-methyl-N-[^6-(^4-methyl-piperazin-1-yl)-4-o-tolyl-pyridin-3-yl]-isobutyramide in vitro was examined by studying its effect on substance P induced Ca^2+influxes in CHO cells expressing the recombinant human NK1 receptor. In these cells, substance P causes a concentration dependent influx of Ca^2+ which can be measured using FLIPR technology.
The activity of the compound of formula Ic in vitro was examined by studying its effect on substance P induced Ca^2+ influxes in CHO cells expressing the recombinant human NK1 receptor. In these cells, substance P causes a concentration dependent influx of Ca^2+ which can be measured using FLIPR technology.

Each structure is given as a SMILES string. Structures can show the parent of a compound that is named as a salt.

T1 sequence (P25103 whole entry): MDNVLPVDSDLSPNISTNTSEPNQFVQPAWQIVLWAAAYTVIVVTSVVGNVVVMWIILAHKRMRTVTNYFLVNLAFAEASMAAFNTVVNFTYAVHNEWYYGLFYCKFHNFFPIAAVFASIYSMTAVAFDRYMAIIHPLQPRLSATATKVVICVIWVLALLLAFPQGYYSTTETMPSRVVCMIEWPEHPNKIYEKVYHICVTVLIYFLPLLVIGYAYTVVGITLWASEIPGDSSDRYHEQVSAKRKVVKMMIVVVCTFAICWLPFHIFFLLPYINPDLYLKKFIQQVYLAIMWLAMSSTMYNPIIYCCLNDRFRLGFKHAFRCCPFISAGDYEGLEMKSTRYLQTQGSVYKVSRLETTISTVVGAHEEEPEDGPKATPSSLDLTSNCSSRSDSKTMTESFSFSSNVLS

`Cc1ccccc1-c1cc(N(C)C)ncc1N(C)C(=O)C(C)(C)c1cc(C(F)(F)F)cc(C(F)(F)F)c1` (as salt: hydrochloride) [Example 29, 2-(3,5-Bis-trifluoromethyl-phenyl)-N-(6-dimethylamino-4-o-tolyl-pyridin-3-yl)-N-methyl-isobutyramide] showed a melting point of 174 to 175 °C.
The compound `Cc1ccccc1-c1cc(N2CCOCC2)ncc1N(C)C(=O)C(C)(C)c1cc(C(F)(F)F)cc(C(F)(F)F)c1` (as salt: hydrochloride) [Ia, 2-(3,5-bis-trifluoromethyl-phenyl)-N-methyl-N-(6-morpholin-4-yl-4-o-tolyl-pyridin-3-yl)-isobutyramide] returned a melting point of 73.5 to 76 °C.
The same measure, in the same setting: then `CN(C(=O)C(C)(C)c1cc(C(F)(F)F)cc(C(F)(F)F)c1)c1cnccc1-c1ccccc1Cl` (as salt: hydrochloride) [Ic, 2-(3,5-Bis-trifluoromethyl-phenyl)-N-[4-(2-chloro-phenyl)-pyridin-3-yl]-N-methyl-isobutyramide], with 186 to 188 °C.
As for `Cc1ccccc1-c1ccncc1N(C)C(=O)C(C)(C)c1cc(C(F)(F)F)cc(C(F)(F)F)c1` [Example 18, 2-(3,5-Bis-trifluoromethyl-phenyl)-N-methyl-N-(4-o-tolyl-pyridin-3-yl)-isobutyramide Hydrochloride (1:1)], in [1], the Ki is 3.39 nM.
`Cc1ccccc1-c1cc(N(C)CCN2CCOCC2)ncc1N(C)C(=O)C(C)(C)c1cc(C(F)(F)F)cc(C(F)(F)F)c1` [Example 25, 2-(3,5-Bis-trifluoromethyl-phenyl)-N-methyl-N-{6-[methyl-(2-morpholin-4-yl-ethyl)-amino]-4-o-tolyl-pyridin-3-yl}-isobutyramide]: the Ki in data set [1] was 2 nM.
As to `Cc1ccccc1-c1cc(N2CCNCC2)ncc1N(C)C(=O)C(C)(C)c1cc(C(F)(F)F)cc(C(F)(F)F)c1` [Example 31, 2-(3,5-Bis-trifluoromethyl-phenyl)-N-methyl-N-(6-piperazin-1-yl-4-o-tolyl-pyridin-3-yl)-isobutyramide], in [1], the Ki is 1 nM.
Consider `Cc1ccccc1-c1cc(N2CCN(Cc3n[nH]c(=O)[nH]3)CC2)ncc1C(=O)N(C)Cc1cc(C(F)(F)F)cc(C(F)(F)F)c1` [Example 58, N-(3,5-Bis-trifluoromethyl-benzyl)-N-methyl-6-[4-(5-oxo-4,5-dihydro-1H-[1,2,4]triazol-3-ylmethyl)-piperazin-1-yl]-4-o-tolyl-nicotinamide], for which the Ki in data set [1] was 0.288 nM.
With `CC(C)c1cc(Cl)ncc1C(=O)NC(C)(C)C` [Example 83, N-tert-Butyl-6-chloro-4-(prop-2-yl)-nicotinamide], the melting point is 130 to 140 °C (dec.).
As for `CC(C)(C)NC(=O)c1cnc(Cl)cc1-c1ccc(F)cc1` [Example 84, N-tert.-Butyl-6-chloro-4-p-fluoro-phenyl-nicotinamide], the melting point lay within 168 to 173 °C.
`Cc1ccccc1-c1cc(N2CCOCC2)ncc1N(C)C(=O)C(C)(C)c1cc(C(F)(F)F)cc(C(F)(F)F)c1` [Ia, 2-(3,5-bis-trifluoromethyl-phenyl)-N-methyl-N-(6-morpholin-4-yl-4-o-tolyl-pyridin-3-yl)-isobutyramide]: the Ki in data set [1] is 1 nM. The “selectivity for the NK1 receptor compared to NK2 receptors” value in data set [2] is “over 2 orders of magnitude”. For the same compound, the “selectivity for the NK1 receptor compared to NK3 receptors” value in data set [3] is “over 2 orders of magnitude”. Also, the “selectivity for the NK1 receptor compared to over 50 other binding sites” value in [4] is “over 2 orders of magnitude”. In addition, in [5], the “dose calculated to inhibit 50% of the foot-tapping behaviour” value is given as 0.2 mg/kg. In addition, the “emesis induced by all emetogens (apomorphine, morphine, ipecacuanha, cisplatin, CuSO4)” value in data set [6] is given as “completely blocked”. For the same compound, in [7], the clearance amounted to 4 mL/min/kg, the bioavailability came to 50%, the half-life was 23 h and the Vd is 8 L/kg. In [8], this compound had a Vd of 22 L/kg, a clearance of 16 mL/min/kg, a half-life of 40 h and a bioavailability of 30 to 40%. Also, in data set [9], the “effect on substance P induced Ca2+ influxes” value is “rightward shift in the concentration effect curve of substance P” and the “type of antagonism at human recombinant NK1 receptors” value is recorded as “competitive antagonist”. For the same compound, in data set [9] (substance P induced Ca2+ influx, CHO cells), the “slope of the Schild regression” value was 1.1.
Consider `CN(C(=O)C(C)(C)c1cc(C(F)(F)F)cc(C(F)(F)F)c1)c1cnccc1-c1ccccc1Cl` [Ic, 2-(3,5-Bis-trifluoromethyl-phenyl)-N-[4-(2-chloro-phenyl)-pyridin-3-yl]-N-methyl-isobutyramide], for which the Ki in [1] is 2.51 nM. The “selectivity for the NK1 receptor compared to NK2 receptors” value in data set [2] is “over 2 orders of magnitude”. Further, the “selectivity for the NK1 receptor compared to NK3 receptors” value in data set [3] is reported as “over 2 orders of magnitude”. Further, in [4], the “selectivity for the NK1 receptor compared to over 50 other binding sites” value was “over 2 orders of magnitude”. Moreover, in [5], the “total plasma concentration required to completely block the foot-tapping behaviour” value came out at 100 ng/mL and the “dose calculated to inhibit 50% of the foot-tapping behaviour” value is reported as 1.5 mg/kg. Also, in [7], the clearance was found to be 45 mL/min/kg, the bioavailability was roughly 30%, the half-life is 11 h and the Vd worked out at 2.6 L/kg. In data set [8], the Vd came out at 4.5 L/kg, the clearance was 30 mL/min/kg, the half-life was 3.5 h and the bioavailability was found to be 16%. In data set [9], the “effect on substance P induced Ca2+ influxes” value is given as “inhibited this effect in a concentration dependent manner” and the “type of antagonism at human recombinant NK1 receptors” value is on record as “competitive antagonist”.
